Experimental data published in PMC4349892, “Biochemical Characterization of Three BLT Receptors in Zebrafish” (PLoS ONE, 2015).

Legend:
Assay type in all cases: biochemical
Details in all cases: agonist; pH 7.4 (calcium); GTPγS binding at 1 μM ligand, 30°C; dose-response curves only in figures
hBLT2 [1] = target: T1, hBLT2 (Homo sapiens, UniProt Q9NPC1)
T1 construct: gene LTB4R2; also HEK293 with Gq/i1
T1 sequence (Q9NPC1 1-358): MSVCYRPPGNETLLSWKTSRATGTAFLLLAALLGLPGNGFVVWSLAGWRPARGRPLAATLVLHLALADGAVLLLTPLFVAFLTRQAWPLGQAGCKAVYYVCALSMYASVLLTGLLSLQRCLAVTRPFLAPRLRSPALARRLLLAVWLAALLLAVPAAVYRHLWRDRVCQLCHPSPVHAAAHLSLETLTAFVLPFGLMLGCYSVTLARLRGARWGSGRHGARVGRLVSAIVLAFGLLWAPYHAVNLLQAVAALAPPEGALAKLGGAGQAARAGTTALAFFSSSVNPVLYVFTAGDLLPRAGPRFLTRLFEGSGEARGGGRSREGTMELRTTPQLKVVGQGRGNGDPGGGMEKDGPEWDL

zebrafish Blt2a = target: T2, zebrafish Blt2a (Danio rerio, UniProt A0A0A8JZN4); test: calcium mobilization (Fluo-8), […]GTPγS binding, TGFα shedding
T2 construct: gene ltb4r2a; also HEK293 with Gq/i1; LC009450 assigned by order of listing
T2 sequence (A0A0A8JZN4 1-382): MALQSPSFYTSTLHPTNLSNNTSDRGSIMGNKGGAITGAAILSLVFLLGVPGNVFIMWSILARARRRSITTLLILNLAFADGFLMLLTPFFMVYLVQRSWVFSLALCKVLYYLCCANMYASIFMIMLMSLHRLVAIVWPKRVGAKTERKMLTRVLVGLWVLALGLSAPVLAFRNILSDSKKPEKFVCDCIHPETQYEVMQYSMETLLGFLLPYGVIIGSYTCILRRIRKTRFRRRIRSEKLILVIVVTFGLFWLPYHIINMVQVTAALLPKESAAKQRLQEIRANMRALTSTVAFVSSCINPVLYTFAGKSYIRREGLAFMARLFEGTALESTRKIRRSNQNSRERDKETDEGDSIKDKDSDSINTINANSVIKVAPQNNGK

hBLT1 = target: T3, hBLT1 (Homo sapiens, UniProt Q15722); test: calcium mobilization (Fluo-8), […]GTPγS binding, cAMP inhibition, TGFα shedding
T3 construct: gene LTB4R; also HEK293 with Gq/i1

zebrafish Blt2b [2] = target: T4, zebrafish Blt2b (Danio rerio, UniProt E7F4K9); test: calcium mobilization (Fluo-8), […]GTPγS binding, TGFα shedding
T4 construct: gene ltb4r2b; also HEK293 with Gq/i1; LC009451 assigned by order of listing
T4 sequence (E7F4K9 1-339): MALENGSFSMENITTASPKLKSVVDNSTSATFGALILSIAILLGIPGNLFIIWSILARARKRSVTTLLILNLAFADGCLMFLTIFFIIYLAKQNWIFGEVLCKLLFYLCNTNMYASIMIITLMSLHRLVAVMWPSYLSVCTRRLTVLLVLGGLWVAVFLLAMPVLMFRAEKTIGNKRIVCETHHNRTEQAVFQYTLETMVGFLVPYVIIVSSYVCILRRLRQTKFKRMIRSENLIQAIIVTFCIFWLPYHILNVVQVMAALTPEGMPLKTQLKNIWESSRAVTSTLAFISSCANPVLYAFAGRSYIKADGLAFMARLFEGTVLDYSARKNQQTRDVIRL

zebrafish Blt1 = target: T5, zebrafish Blt1 (Danio rerio, UniProt A0A0A8JWS4); test: calcium mobilization (Fluo-8), […]GTPγS binding, cAMP inhibition, TGFα shedding
T5 construct: gene ltb4r; also HEK293 with Gq/i1
T5 sequence (A0A0A8JWS4 1-380): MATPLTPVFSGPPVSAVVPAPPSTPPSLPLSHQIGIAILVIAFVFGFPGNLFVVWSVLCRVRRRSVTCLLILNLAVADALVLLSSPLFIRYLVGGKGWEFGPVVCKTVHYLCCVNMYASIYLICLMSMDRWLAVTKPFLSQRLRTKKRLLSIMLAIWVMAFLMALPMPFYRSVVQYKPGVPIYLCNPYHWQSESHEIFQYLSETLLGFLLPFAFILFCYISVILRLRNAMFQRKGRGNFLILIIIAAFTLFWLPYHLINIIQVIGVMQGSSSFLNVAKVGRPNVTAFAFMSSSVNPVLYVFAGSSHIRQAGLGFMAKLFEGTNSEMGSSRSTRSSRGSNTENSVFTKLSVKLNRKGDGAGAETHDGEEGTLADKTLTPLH

hBLT2 [3] = target: T1, hBLT2; test: as above
zebrafish Blt2b [4] = target: T4, zebrafish Blt2b; test: as above

T3 sequence (Q15722 whole entry): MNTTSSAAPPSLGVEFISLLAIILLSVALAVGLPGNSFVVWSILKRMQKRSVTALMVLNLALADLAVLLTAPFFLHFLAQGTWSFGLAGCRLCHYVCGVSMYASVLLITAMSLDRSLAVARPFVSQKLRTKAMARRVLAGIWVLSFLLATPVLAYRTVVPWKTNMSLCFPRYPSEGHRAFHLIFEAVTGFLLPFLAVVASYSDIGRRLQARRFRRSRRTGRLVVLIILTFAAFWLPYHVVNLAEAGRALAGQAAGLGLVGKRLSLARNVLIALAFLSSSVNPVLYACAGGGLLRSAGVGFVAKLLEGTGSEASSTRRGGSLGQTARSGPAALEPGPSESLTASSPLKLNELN

Compound | calcium mobilization (Fluo-8), [35S]GTPγS binding, TGFα shedding (hBLT2 [1]) | calcium mobilization (Fluo-8), [35S]GTPγS binding, TGFα shedding (zebrafish Blt2a) | calcium mobilization (Fluo-8), [35S]GTPγS binding, cAMP inhibition, TGFα sheddin (hBLT1) | calcium mobilization (Fluo-8), [35S]GTPγS binding, TGFα shedding (zebrafish Blt2b [2]) | calcium mobilization (Fluo-8), [35S]GTPγS binding, cAMP inhibition, TGFα sheddin (zebrafish Blt1) | calcium mobilization (Fluo-8), [35S]GTPγS binding, cAMP inhibition, TGFα sheddin (hBLT2 [3]) | calcium mobilization (Fluo-8), [35S]GTPγS binding, cAMP inhibition, TGFα sheddin (zebrafish Blt2b [4])
CCCCC/C=C\C[C@@H](O)/C=C/C=C/C=C\[C@@H](O)CCCC(=O)O [LTB4] | exhibited a dose-dependent increase in response to either 12-HHT or LTB4 stimulation | exhibited a dose-dependent increase in response to either 12-HHT or LTB4 stimulation | intracellular free calcium concentration increased in a dose-dependent manner in response to LTB4 stimulation | exhibited a dose-dependent increase in response to either 12-HHT or LTB4 stimulation | intracellular free calcium concentration increased in a dose-dependent manner in response to LTB4 stimulation |  | 
CCCCC[C@H](O)/C=C/C=C/C/C=C\CCCC(=O)O [12-HHT, 12(S)-hydroxy-5-cis-8,10-trans-heptadecatrienoic acid] |  |  |  |  |  | exhibited a dose-dependent increase in response to either 12-HHT or LTB4 stimulation | 12-HHT activated zebrafish Blt2a and Blt2b at lower doses than LTB4
